Among the test systems are SNB-19 CNS; RXF 393 renal; SN12C renal; UO-31 renal; HT29 colon; M14 melanoma; SK-OV-3 ovarian; SK-MEL-2 melanoma; HOP-92 NSCLC; SF-539 CNS.
What all share (assay): NCI tumour cell line growth inhibition, 48 h

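Five compound concentrations were applied to cells in 96-well plates for 48 hours; endpoints were derived by simple linear interpolation of the resulting dose-response curve. GI50: concentration for 50% inhibition of growth. TGI: total growth inhibition.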

The source of these data is PubChem BioAssay (NCI).

Regarding `CC(C)c1cc(CN(C)C)c(O)c(C(C)(C)C)c1`, the TGI with SNB-19 CNS is 53.4 µM; in the test on RXF 393 renal, 37.2 µM; in the test with SN12C renal, 33.1 µM; with UO-31 renal, 58 µM; in the test on HT29 colon, greater than 100 µM; in the test with M14 melanoma, 78.5 µM. The TGI in the test on SK-OV-3 ovarian is greater than 100 µM; in the test on SK-MEL-2 melanoma it was 38.6 µM.

For the compound `CCOC(=O)C12CCC(=O)C=C1[C@@H](C)C(=O)CC2` (some centres undefined), the TGI with HOP-92 NSCLC, in the test on RXF 393 renal, with SN12C renal, in the test with UO-31 renal, in the test with HT29 colon and with M14 melanoma was greater than 100 µM in each case. Moreover, the TGI in the test with SK-OV-3 ovarian and in the test with SK-MEL-2 melanoma was greater than 100 µM each time.

As to `Nc1nc(N)c2c(n1)NC(=O)c1c(c3ccccc3n1Cc1ccc(Cl)cc1)C2`, the TGI in the test on HOP-92 NSCLC was 20.4 µM; in the test with SNB-19 CNS it was greater than 100 µM; in the test with RXF 393 renal, 33.4 µM; with SN12C renal, 38.2 µM; in the test with UO-31 renal, greater than 100 µM; in the test with HT29 colon it was greater than 100 µM. Also, the TGI was 44.8 µM in the test with SF-539 CNS, greater than 100 µM in the test with M14 melanoma, 45.4 µM with SK-OV-3 ovarian and greater than 100 µM in the test on SK-MEL-2 melanoma.

In the case of `CC(C)(C)N1C(C(=O)c2ccccc2)C1c1ccccc1` (centres undefined), the TGI in the test with HOP-92 NSCLC, with SNB-19 CNS, in the test on RXF 393 renal, in the test with SN12C renal, in the test with HT29 colon and with SF-539 CNS was greater than 100 µM in each case. Also, the TGI with M14 melanoma and in the test on SK-OV-3 ovarian was greater than 100 µM each time.

For the compound `C#CCOc1c(C(=O)OCC)c(=O)n(C)c2ccccc12`, the TGI in the test on HOP-92 NSCLC, in the test with SNB-19 CNS, in the test with SN12C renal, in the test on UO-31 renal, in the test with HT29 colon and with SF-539 CNS was greater than 100 µM each time. For the same compound, the TGI in the test with M14 melanoma, with SK-OV-3 ovarian and in the test on SK-MEL-2 melanoma was greater than 100 µM in each case.

With `CC(=O)OC(C)C1C2=C(C(=O)CC1(C)O)C(=O)c1c(ccc(-c3ccc4c(c3O)C(=O)C3=C(C4=O)C(C(C)OC(C)=O)C(C)(O)CC3=O)c1O)C2=O` (centres undefined), the TGI turned out to be 3.08 µM in the test on HOP-92 NSCLC; 24 µM in the test with SNB-19 CNS; 3.59 µM in the test on RXF 393 renal; 6.58 µM in the test with SN12C renal; 9.16 µM in the test with UO-31 renal; 3.98 µM in the test with HT29 colon. Further, the TGI turned out to be 3.54 µM with SF-539 CNS, 4.3 µM with M14 melanoma, 23.6 µM in the test on SK-OV-3 ovarian and 2.74 µM in the test with SK-MEL-2 melanoma.

`NC(=O)C(N)=O`: the TGI with HOP-92 NSCLC, in the test on SNB-19 CNS, with RXF 393 renal, in the test with SN12C renal, in the test with UO-31 renal and with SF-539 CNS was greater than 100 µM in each case. The TGI in the test with M14 melanoma, with SK-OV-3 ovarian and with SK-MEL-2 melanoma was greater than 100 µM throughout.

For the compound `CC(C)=CCNc1ncnc2nc[nH]c12`, the TGI in the test with HOP-92 NSCLC, in the test on SNB-19 CNS, in the test with RXF 393 renal, in the test with SN12C renal, in the test on UO-31 renal and with HT29 colon was greater than 100 µM throughout. In addition, the TGI with SF-539 CNS, in the test with M14 melanoma, in the test with SK-OV-3 ovarian and with SK-MEL-2 melanoma was greater than 100 µM each time.

Take `COC(=O)Nc1nc2cc(OC)c(OC)cc2c(=O)[nH]1`: the TGI with SNB-19 CNS, in the test with SN12C renal, in the test on UO-31 renal, with HT29 colon, in the test with SF-539 CNS and with M14 melanoma was greater than 100 µM in each case. The TGI with SK-OV-3 ovarian and in the test with SK-MEL-2 melanoma was greater than 100 µM in each case.

Take `O=C(CSc1nc2ccccc2s1)c1sc2sc3ccccc3[n+]2c1[O-]`: the TGI with HOP-92 NSCLC, with SNB-19 CNS, in the test with RXF 393 renal, in the test on SN12C renal, with UO-31 renal and in the test on HT29 colon was greater than 100 µM throughout. Moreover, the TGI with SF-539 CNS, in the test with M14 melanoma, with SK-OV-3 ovarian and in the test on SK-MEL-2 melanoma was greater than 100 µM in each case.

Consider `COc1ccc(C[C@H](N)C(=O)NC2C(CO)OC(n3cnc4c(N(C)C)ncnc43)C2O)cc1` (some centres undefined), for which the TGI is 0.591 µM in the test on HOP-92 NSCLC; 0.73 µM in the test on RXF 393 renal; 7.89 µM with UO-31 renal; 1.77 µM with M14 melanoma; 3.26 µM in the test on SK-MEL-2 melanoma.

For `O=C(CNc1cccc([N+](=O)[O-])c1)Nn1c(-c2ccccc2)nc2ccccc2c1=O`, the TGI in the test on SNB-19 CNS was 4.99 µM; with RXF 393 renal, 1.08 µM; with SN12C renal, 2.73 µM; in the test with UO-31 renal, 4.12 µM; in the test on HT29 colon it was 1.08 µM; in the test on SF-539 CNS, 4.7 µM. The TGI in the test with SK-OV-3 ovarian was 2.04 µM.

On to `N#CCCCC[N+]12CN3CN(CN(C3)C1)C2`, for which the TGI in the test on HOP-92 NSCLC, in the test with SNB-19 CNS, in the test on RXF 393 renal, in the test with SN12C renal, with UO-31 renal and with HT29 colon was greater than 100 µM each time. In addition, the TGI in the test on SF-539 CNS is 54 µM; in the test with M14 melanoma it was greater than 100 µM; with SK-OV-3 ovarian, greater than 100 µM; in the test with SK-MEL-2 melanoma, greater than 100 µM.

Regarding `N#CN=C(N)NC(=O)/C=C/C=C/c1ccc(Cl)cc1`, the TGI is greater than 100 µM in the test with HOP-92 NSCLC; greater than 100 µM in the test on RXF 393 renal; greater than 100 µM in the test on SN12C renal; greater than 100 µM in the test with UO-31 renal; greater than 100 µM with HT29 colon; 50.4 µM in the test with SF-539 CNS. The TGI in the test with M14 melanoma, with SK-OV-3 ovarian and in the test on SK-MEL-2 melanoma was greater than 100 µM each time.

As for `N=C(c1ccc2ccccc2c1)c1ccccc1Cc1ccccc1`, the TGI in the test with HOP-92 NSCLC was greater than 100 µM; in the test with SNB-19 CNS, greater than 100 µM; in the test on RXF 393 renal it was 34.4 µM; with SN12C renal, greater than 100 µM; in the test on UO-31 renal, greater than 100 µM; with HT29 colon, greater than 100 µM. Further, the TGI was greater than 100 µM in the test with SF-539 CNS, greater than 100 µM with M14 melanoma, greater than 100 µM in the test with SK-OV-3 ovarian and 49.6 µM in the test on SK-MEL-2 melanoma.

As for `O=c1ccc2nc(-c3ccccc3)nn(-c3ccccn3)c-2c1`, the GI50 in the test on HOP-92 NSCLC was 1250 nM; in the test with RXF 393 renal it was 1790 nM; in the test on SN12C renal it was 16.9 µM; with UO-31 renal, 1450 nM; with HT29 colon, 3.2 µM; in the test on SF-539 CNS it was 16.2 µM. For the same compound, the GI50 with M14 melanoma is 16.7 µM; in the test on SK-OV-3 ovarian it was 10.3 µM; with SK-MEL-2 melanoma it was 15 µM. The TGI with HOP-92 NSCLC came to 3.31 µM; in the test on RXF 393 renal, 3.3 µM; with SN12C renal, 37.9 µM; with UO-31 renal it was 2.81 µM; in the test with HT29 colon, 15.1 µM; in the test on SF-539 CNS, 30.8 µM. For the same compound, the values for the TGI in the test with M14 melanoma, in the test with SK-OV-3 ovarian and in the test with SK-MEL-2 melanoma were 44.6 µM, 25 µM and 41.9 µM, respectively.
